In brackets after ≈: the same amount, converted by molar mass.
Test: physchem
Conditions: pH 7.4 buffer

Row | SMILES | solubility thermodynamic
1 | O=C(NC1C2CC3CC(C2)CC1C3)[C@H]1CCCN1Cc1ccc(Cl)cc1 (stereo partly specified) | 21.4 µM (≈ 7.98 µg/mL)
2 | O=C(O)c1csc(NC(=O)C(CC2CCCC2)c2ccc(Cl)c(Cl)c2)n1 (stereo unspecified) | 34.7 µM (≈ 14.3 µg/mL)
3 | CNC(=O)[C@H](Cc1ccccc1)NC(=O)[C@H](CC(C)C)[C@H](CSc1ccccc1)C(=O)NO | 11.2 µM (≈ 5.28 µg/mL)
4 | O=C(c1ccc(F)cc1)C1CCN(C(=O)c2ccccc2Cl)CC1 | 28.8 µM (≈ 9.96 µg/mL)
5 | Cc1ccc(C(=O)N2CCC(C(=O)c3ccc(F)cc3)CC2)cc1 | 20.4 µM (≈ 6.64 µg/mL)
6 | O=C(c1ccc(F)cc1)C1CCN(C(=O)c2ccc(OC(F)(F)F)cc2)CC1 | 11.5 µM (≈ 4.55 µg/mL)
7 | O=C(c1ccc(F)cc1)C1CCN(C(=O)c2cccc(OC(F)(F)F)c2)CC1 | 11 µM (≈ 4.35 µg/mL)
8 | O=C(c1ccc(F)cc1)C1CCN(C(=O)c2ccc(F)cc2Cl)CC1 | 14.5 µM (≈ 5.27 µg/mL)
9 | COc1ccc(Cl)cc1NC(=O)c1cnccn1 | 12 µM (≈ 3.16 µg/mL)
10 | O=C(NCc1ccccc1)c1cccn(Cc2ccccc2)c1=O | 26.3 µM (≈ 8.37 µg/mL)
11 | Cc1cc2oc(=O)cc(Cn3ccnc3)c2cc1C | 33.9 µM (≈ 8.62 µg/mL)
12 | COc1ccc2oc(=O)c(C(C)=O)cc2c1 | 49 µM (≈ 10.7 µg/mL)
13 | c1ccc(-c2nnc(-c3ccccc3)o2)cc1 | 15.8 µM (≈ 3.51 µg/mL)
14 | Clc1ccc(-c2cn3cccnc3n2)cc1 | 20 µM (≈ 4.59 µg/mL)
15 | O=C(c1ccc(Cl)cc1)C1CCN(C(=O)c2ccccc2)CC1 | 29.5 µM (≈ 9.67 µg/mL)
16 | O=C(c1ccccc1)C1CCN(C(=O)c2c(F)cccc2F)CC1 | 13.2 µM (≈ 4.35 µg/mL)
17 | O=C(c1nnsc1S(=O)(=O)c1ccc(Cl)cc1)N1CCOCC1 | 17 µM (≈ 6.36 µg/mL)
18 | COCCOc1cc2nccc(Nc3ccc(Cl)cc3F)c2cc1OC | 33.9 µM (≈ 12.8 µg/mL)
19 | CCC(=O)Nc1c(C#N)c2nc3ccccc3nc2n1-c1ccccc1C | 13.5 µM (≈ 4.8 µg/mL)
20 | CN(C)C(=O)c1nnsc1Sc1ccc(Cl)cc1 | 31.6 µM (≈ 9.47 µg/mL)
21 | O=C(c1ccccc1)C1CCN(C(=O)c2ccc(Cl)cc2)CC1 | 28.8 µM (≈ 9.44 µg/mL)
22 | Cc1ccc2nc(-c3ccccc3)cc(O)c2c1 | 22.9 µM (≈ 5.39 µg/mL)
23 | CC(C)(C)OC(=O)N1CCC[C@H]1C(=O)Nc1ccc(Br)cc1 | 23.4 µM (≈ 8.64 µg/mL)
24 | Cc1cccc(C)c1NC(=O)N1CCC(C(=O)c2ccc(F)cc2)CC1 | 18.6 µM (≈ 6.59 µg/mL)

Row | SMILES | solubility thermodynamic
25 | CC1(C)C(=O)N(c2ccc(SC(F)(F)F)cc2)C(=O)N1Cc1ccncc1 | 43.7 µM (≈ 17.3 µg/mL)
26 | Cc1ccccc1N(C)c1ccnc(Nc2cc(N3CCOCC3)cc(N3CCOCC3)c2)n1 | 30.9 µM (≈ 14.2 µg/mL)
27 | COc1cccc(N(C)c2ccnc(Nc3cc(N4CCOCC4)cc(N4CCOCC4)c3)n2)n1 | 15.5 µM (≈ 7.4 µg/mL)
28 | Cc1ccc(CO)cc1N(C)c1ccnc(Nc2cc(N3CCOCC3)cc(S(C)(=O)=O)c2)n1 | 15.8 µM (≈ 7.64 µg/mL)
29 | Cc1cc(F)ccc1CCC1CCN(S(=O)(=O)CC2(N(O)C=O)CCOCC2)CC1 | 13.8 µM (≈ 6.11 µg/mL)
30 | COc1cc(Oc2ccc(C(=O)NCc3ccncc3)cc2)ccc1[N+](=O)[O-] | 21.4 µM (≈ 8.12 µg/mL)
31 | CN(C(=O)Cc1ccc(Br)cc1)C1CCN(CCC(c2ccccc2)c2ccccc2)CC1 | 21.9 µM (≈ 11.1 µg/mL)
32 | COc1cc(C2CCNCC2)ccc1Nc1ncc(Cl)c(-c2cnc3ccccn23)n1 | 44.7 µM (≈ 19.4 µg/mL)
33 | COc1cc(N2CCOCC2)ccc1Nc1ncc(Cl)c(-c2cnc3ccccn23)n1 | 16.2 µM (≈ 7.08 µg/mL)
34 | COc1cc(N2CCN(C(C)=O)CC2)ccc1Nc1ncc(F)c(-c2cnc3ccccn23)n1 | 14.5 µM (≈ 6.69 µg/mL)
35 | N#Cc1ccccc1COc1cc(OCCCN2CCCC2)ccc1C(=O)Nc1ccccc1 | 34.7 µM (≈ 15.8 µg/mL)
36 | CCn1ccc(NC(=O)Cc2ccc(Oc3ncnc4cc(OC)c(OC)cc34)cc2)n1 | 32.4 µM (≈ 14 µg/mL)
37 | CCn1cc(NC(=O)Cc2ccc(Oc3ncnc4cc(OC)c(OC)cc34)cc2)cn1 | 24 µM (≈ 10.4 µg/mL)
38 | CCn1cc(NC(=O)Cc2ccc(Oc3ccnc4cc(OC)c(OC)cc34)cc2)cn1 | 10.7 µM (≈ 4.63 µg/mL)
39 | CC(C)Oc1cc(OCC2CCCC2)cc(C(=O)Nc2ccc(C(=O)O)cn2)c1 | 45.7 µM (≈ 18.2 µg/mL)
40 | COc1ccc(Cl)c(Nc2ncnc3cc(OCCN4CCN(C(C)=O)CC4)cc(OC(C)C)c23)n1 | 42.7 µM (≈ 22 µg/mL)
41 | COc1cnc(Cl)c(Nc2ncnc3cc(OCCN4CCN(C(C)=O)CC4)cc(OC(C)C)c23)n1 | 22.4 µM (≈ 11.6 µg/mL)
42 | O=c1cc(-c2ccccc2)[nH]c2c(Cl)cccc12 | 30.9 µM (≈ 7.9 µg/mL)
43 | CN(C(=O)Cc1ccc(-n2cnnn2)cc1)[C@@H]1CCN(Cc2ccc(C(F)(F)F)cc2)C[C@@H]1F | 16.2 µM (≈ 7.72 µg/mL)
44 | CCc1cc(NC(=O)Cc2ccc(Oc3ccnc4cc(OC)c(OC)cc34)cc2OC)[nH]n1 | 11 µM (≈ 5.09 µg/mL)
45 | COc1ccc2c(Oc3ccc(CC(=O)Nc4cnn(C)c4C)c(OC)c3)ccnc2c1 | 10.7 µM (≈ 4.63 µg/mL)
46 | CCn1cc(NC(=O)Cc2ncc(Oc3ccnc4cc(OC)ccc34)cc2OC)cn1 | 17.4 µM (≈ 7.54 µg/mL)
47 | COc1ccc2c(Oc3cnc(CC(=O)Nc4cn(C)nc4C)c(OC)c3)ccnc2c1 | 15.1 µM (≈ 6.55 µg/mL)
48 | CCn1cc(NC(=O)Cc2ccc(Oc3ccnc4cc(OC)c(OC)cc34)cn2)cn1 | 15.8 µM (≈ 6.85 µg/mL)

Row | SMILES | solubility thermodynamic
49 | COC(=O)N[C@H](C(=O)N1CCC[C@H]1c1nc(-c2ccc(-c3ccc(-c4c[nH]c([C@@H]5CCCN5C(=O)[C@@H](NC(=O)OC)C(C)C)n4)cc3)cc2)c[nH]1)C(C)C | 10.2 µM (≈ 7.54 µg/mL)
50 | CS(=O)(=O)Cc1cc(N2CCOCC2)nc(-c2cnc3[nH]ccc3c2)n1 | 47.9 µM (≈ 17.9 µg/mL)
51 | CS(=O)(=O)Cc1cc(N2CCOCC2)nc(-c2cccc3[nH]ccc23)n1 | 12.9 µM (≈ 4.8 µg/mL)
52 | CS(=O)(=O)Cc1cc(N2CCOCC2)nc(-c2ccc(NS(C)(=O)=O)cc2)n1 | 11.2 µM (≈ 4.78 µg/mL)
53 | NC1(c2ccc(-c3nn4cccc4cc3-c3ccccc3)cc2)CCC1 | 26.3 µM (≈ 8.93 µg/mL)
54 | CN1CCN(CCCOc2cc(OC3CCOCC3)c3c(Nc4ccc(F)c(Cl)c4)ncnc3c2)CC1 | 38 µM (≈ 20.1 µg/mL)
55 | COc1ccc(C(=O)Nc2ccccc2)cc1 | 18.2 µM (≈ 4.14 µg/mL)
56 | CC(C)C(NC(=O)c1cnoc1C(C)(C)C)C(=O)c1ccc(C#N)cc1 (stereo unspecified) | 20 µM (≈ 7.07 µg/mL)
57 | C[C@@H](O)C(=O)N1CC=C(c2c(F)cc(N3C[C@H](COc4ccon4)OC3=O)cc2F)CC1 | 25.1 µM (≈ 11.3 µg/mL)
58 | c1ccc(-c2nc[nH]c2-c2ccccc2)cc1 | 22.9 µM (≈ 5.04 µg/mL)
59 | CN1CCC(c2cc(N3CCOCC3)nc(-c3cccc4[nH]ccc34)n2)(S(C)(=O)=O)CC1 | 21.4 µM (≈ 9.75 µg/mL)
60 | CS(=O)(=O)C1(c2cc(N3CCOCC3)nc(-c3cccc(N)c3)n2)CC1 | 13.2 µM (≈ 4.94 µg/mL)
61 | N#Cc1ccc(CN2CCN(c3ccc4nnc(C(F)(F)F)n4n3)CC2)cc1 | 11.5 µM (≈ 4.45 µg/mL)
62 | C[C@H](COc1cccc2ncnc(Nc3ccc(OCc4ccccn4)c(Cl)c3)c12)N(C)C(=O)CO | 14.1 µM (≈ 7.16 µg/mL)
63 | Cc1ccc(Oc2ccc(Nc3ncnc4cccc(O[C@H](C)C(=O)N(C)C)c34)cc2C)cn1 | 22.9 µM (≈ 10.5 µg/mL)
64 | C[C@@H](Oc1cccc2ncnc(Nc3ccc4c(cnn4Cc4cscn4)c3)c12)C(=O)N(C)C | 43.7 µM (≈ 20.7 µg/mL)
65 | C[C@H](Oc1cccc2ncnc(Nc3ccc4c(cnn4Cc4cscn4)c3)c12)C(=O)N(C)C | 42.7 µM (≈ 20.2 µg/mL)
66 | N#Cc1cccnc1-c1ccc(C(=O)Nc2ccccc2N)cc1 | 35.5 µM (≈ 11.2 µg/mL)
67 | C[C@@H](Oc1cccc2ncnc(Nc3ccc4c(cnn4Cc4nccs4)c3)c12)C(=O)N(C)C | 29.5 µM (≈ 14 µg/mL)
68 | C[C@H](Oc1cccc2ncnc(Nc3ccc4c(cnn4Cc4nccs4)c3)c12)C(=O)N(C)C | 31.6 µM (≈ 15 µg/mL)
69 | COCCN(C)C(=O)[C@@H](C)Oc1cccc2ncnc(Nc3ccc(Oc4ccc(C)nc4)c(C)c3)c12 | 11.2 µM (≈ 5.62 µg/mL)
70 | Oc1cc(-c2ccccc2)nc2c(O)cccc12 | 41.7 µM (≈ 9.89 µg/mL)
71 | COc1cc2c(Nc3ccc(Br)cc3F)ncnc2cc1OCCCN1CCN(C)CC1 | 41.7 µM (≈ 21 µg/mL)
72 | COc1cc(-c2nn[nH]n2)ccc1Cn1ncc2ccc(NC(=O)OC3CCCC3)cc21 | 43.7 µM (≈ 18.9 µg/mL)

Row | SMILES | solubility thermodynamic
73 | OC1(C#Cc2ccc(-c3ccccc3)cc2)CN2CCC1CC2 (stereo unspecified) | 14.8 µM (≈ 4.49 µg/mL)
74 | CC(C)Oc1cc(OCCc2ccccc2)cc(C(=O)Nc2ccc(C(=O)O)cn2)c1 | 28.8 µM (≈ 12.1 µg/mL)
75 | COc1cc2ncnc(Nc3cccc(Cl)c3F)c2cc1CN(C)CC(N)=O | 13.2 µM (≈ 5.33 µg/mL)
76 | O=c1[nH]c2cc(Cl)c([N+](=O)[O-])cc2c(O)c1-c1ccccc1 | 29.5 µM (≈ 9.34 µg/mL)
77 | COc1ccc(Cl)c(Nc2ncnc3cc(OCCCN4CCN(C(C)=O)CC4)cc(OC(C)C)c23)n1 | 50.1 µM (≈ 26.5 µg/mL)
78 | Cc1cc(C)cc(-c2[nH]c3sc(C(C)(C)C(=O)N4C5CCC4CC5)cc3c2CCN2CCC(C(=O)N3CCOCC3)C(C)C2)c1 (stereo unspecified) | 33.1 µM (≈ 20.9 µg/mL)
79 | Nc1ccccc1NC(=O)c1ccc(N2CCN(Cc3ccccc3)CC2)cc1 | 28.2 µM (≈ 10.9 µg/mL)
80 | OC1CCN(CCOc2n[nH]c3ncnc(Nc4ccc(OCc5ccccn5)c(Cl)c4)c23)CC1 | 13.8 µM (≈ 6.84 µg/mL)
81 | COc1ccc(Cl)c(Nc2ncnc3cc(OCCN4CCOCC4)cc(OC(C)C)c23)n1 | 26.9 µM (≈ 12.7 µg/mL)
82 | COc1cc2ncnc(Nc3cccc(Cl)c3F)c2cc1CN(C)C1(C(N)=O)CN(C(C)C)C1 | 25.7 µM (≈ 12.5 µg/mL)
83 | CN(C)C(=O)COc1cccc2ncnc(Nc3ccc4c(cnn4Cc4ccccn4)c3)c12 | 10.7 µM (≈ 4.85 µg/mL)
84 | Cc1ccc(Oc2ccc(Nc3ncnc4cccc(O[C@@H](C)C(=O)N(C)C)c34)cc2C)cn1 | 26.3 µM (≈ 12 µg/mL)
85 | Cc1ccc(Oc2ccc(Nc3ncnc4cccc(O[C@@H](C)C(=O)N5CCOCC5)c34)cc2C)cn1 | 31.6 µM (≈ 15.8 µg/mL)
86 | CC(C)n1c2ccc(F)cc2c2cc(NC(=O)N3CCOCC3)ccc21 | 34.7 µM (≈ 12.3 µg/mL)
87 | COc1ccc(-c2cc(N)c(C(N)=O)s2)cc1 | 30.9 µM (≈ 7.67 µg/mL)
88 | COc1ccccc1Oc1coc2cc(O)ccc2c1=O | 12.9 µM (≈ 3.67 µg/mL)
89 | CS(=O)(=O)c1cccc(Nc2nccc(Nc3c(Cl)ccc4c3OCO4)n2)c1 | 30.2 µM (≈ 12.6 µg/mL)
90 | NC(=O)Nc1sc(-c2ccc(OC(F)(F)F)cc2)cc1C(N)=O | 11 µM (≈ 3.8 µg/mL)
91 | COc1cc2ncnc(Nc3ccc(F)c(Cl)c3)c2cc1CN(C)[C@H](C)C(N)=O | 15.5 µM (≈ 6.48 µg/mL)
92 | CC(C)c1cc(C(=O)N[C@@H](Cc2cccc(Cl)c2)C(=O)NCC#N)n(C)n1 | 47.9 µM (≈ 18.6 µg/mL)
93 | N=C(N)c1ccc2cc(C(=O)Nc3ccc4c(c3)OCO4)ccc2c1 | 44.7 µM (≈ 14.9 µg/mL)
94 | CC(=O)N(C1=C(NCCO)C(=O)c2ccccc2C1=O)c1cccc(Br)c1 | 11.7 µM (≈ 5.02 µg/mL)
95 | CC(C)OC(=O)c1cn(Cc2c(F)cccc2F)c2sc(-c3ccc(NC(=O)C(C)C)cc3)c(CN(C)Cc3ccccc3)c2c1=O | 38 µM (≈ 25 µg/mL)
96 | CN(C)CCNS(=O)(=O)c1ccc(Nc2nccc(-c3cnc4ccccn34)n2)cc1 | 30.9 µM (≈ 13.5 µg/mL)

Source: ChEMBL document CHEMBL3301361, “Experimental in vitro DMPK and physicochemical data on a set of publicly disclosed compounds”
